Patent US20150250714A1, “PHARMACEUTICAL COMPOSITIONS AND DELIVERY DEVICES COMPRISING STINGING CELLS OR CAPSULES” (NANOCYTE (ISRAEL) LTD., priority 2010, published 2015)
Where two headings read alike, the source gives them in different places.

How the values were obtained:
[1] = topical 400 mg
Description: Cnidocysts were isolated from the filament acontia of Aiptasia diaphana based on their high density and high stability in salts as described previously (1, 2) (FIGS. 1A-C). Briefly, filaments were incubated in 1M sodium citrate, followed by two centrifugations in 70% percoll gradients. The isolated cnidocysts were washed with decreasing concentrations of NaCl (1M to 0.2M) and freeze-dried. The purified cnidocysts were kept dry until use, or formulated in an anhydrous gel consisting of 2% hydroxyl propyl cellulose in absolute ethanol.
The study included 3 dosing sessions as detailed in Table 3 below.

[2] = oral; cited from earlier work

SMILES | Cumulative Value (CV) % of atropine concentrations, Topical ([1]; Time 0.17) [%] | Cumulative Value (CV) % of atropine concentrations, Topical ([1]; Time 0.25) [%] | Cumulative Value (CV) % of atropine concentrations, Topical ([1]; Time 0.5) [%] | Cumulative Value (CV) % of atropine concentrations, Topical ([1]; Time 0.75) [%] | Cumulative Value (CV) % of atropine concentrations, Topical ([1]; Time 1) [%] | Cumulative Value (CV) % of atropine concentrations, Topical ([1]; Time 2) [%] | Cumulative Value (CV) % of atropine concentrations, Topical ([1]; Time 4) [%] | Cumulative Value (CV) % of atropine concentrations, Topical ([1]; Time 12) [%] | Cumulative Value (CV) % of atropine concentrations, Topical ([1]; Time 24) [%] | fraction absorbed when taken orally [2] [%]
CN1[C@@H]2CC[C@H]1C[C@@H](OC(=O)C(CO)c1ccccc1)C2 (mixture of isomers) [atropine, Atropine] | 43.6 | 76.9 | 42.5 | 148.9 | 103.7 | 98.9 | 113.2 | 96.4 | 144.3 | 
NCCCC(O)(P(=O)(O)O)P(=O)(O)O [sodium alendronate] |  |  |  |  |  |  |  |  |  | 0.64
